Test results taken from US20030100590A1, “3-(4,5-dihydroisoxazol-5-yl)benzoylpyrazole” (priority 1999, published 2003).

Tests used:
spring wheat = assay: greenhouse post-emergence test, crop plant compatibility; assay type: in vivo, Tritricum aestivum; details: application rate 125 or 62.5 g/ha a.s., 2 to 4 weeks
Experimental: (§1) The seeds of the test plants were sown separately for each species. For the post-emergence treatment, the test plants were grown to a plant height of from 3 to 15 cm, depending on the plant habit, and only then treated with the active ingredients which had been suspended or emulsified in water. To this end, the test plants were either sown directly and grown in the same containers, or they were first grown separately as seedlings and transplanted into the test containers a few days prior to treatment. The rate of application for the post-emergence treatment was 125 or 62.5 g/ha a.s. (active substance). Depending on the species, the plants were kept at from 10 to 25° C. and 20 to 35° C., respectively. The test period extended over 2 to 4 weeks. During this time, the plants were tended, and their response to the individual treatments was evaluated. Evaluation was carried out using a scale of from 0 to 100. 100 means no emergence of the plants, or complete destruction of at least the aerial parts, and 0 means no damage or normal course of growth. The plants used in the greenhouse experiments belonged to the following species: [table]

[1] = tested on: Avena fatua, Bromus inermis, Matricaria chamomilla, Matricaria inodora; assay: greenhouse post-emergence herbicidal test, harmful plants; assay type: in vivo; details: application rate 125 or 62.5 g/ha a.s., 2 to 4 weeks
Experimental: as §1

melting point	SMILES	compatibility with / damage in the crop plant spring wheat (spring wheat)	herbicidal activity against the abovementioned harmful plants [1]
–	Cc1cc(-c2c(S(C)(=O)=O)ccc(C(=O)c3cnn(C)c3O)c2C)on1 [A]	caused damage	weaker herbicidal activity
> 215 °C	CC1=NOC(c2c(S(C)(=O)=O)ccc(C(=O)c3cnn(C)c3O)c2Cl)C1 (stereo not shown) [Compound 2.8, 4-[2-Chloro-3-(3-methyl-4,5-dihydroisoxazol-5-yl)-4-methyl-sulfonylbenzoyl]-5-hydroxy-1-methyl-1H-pyrazole]	–	–
> 220 °C	CC1=NOC(c2c(S(C)(=O)=O)ccc(C(=O)c3cnn(C4CC4)c3O)c2Cl)C1 (stereo not shown) [Compound 2.36, 4-[2-Chloro-3-(3-methyl-4 , 5-dihydroisoxazol-5-yl)-4-methyl-sulfonylbenzoyl]-5-hydroxy-1-cyclopropyl-1H-pyrazole]	–	–
